Test results: PubChem BioAssay AID256 (DTP/NCI, 2004)
Several values for one entry are separate records, joined by “and”; a condition that tells them apart may be missing. Equal entries are not always repeated. Toxic doses and inconclusive results are not listed.

Tested on: CD2F1 mice, L1210 leukemia ip, survival T/C
Assay: NCI In Vivo Anticancer Drug Screen. Data for tumor model L1210 Leukemia (intraperitoneal) in CD2F1 (CDF1) mice
Details: higher = longer survival
Summary of the method: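 Mice carrying a transplanted tumor received test compound or vehicle alone. The value is the measurement in the treated group divided by that in the vehicle-treated control group.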

[1] = endpoint: mean survival time, dose: 50.0 mg/kg/injection, schedule: Q01DX009 (ip), vehicle: saline with Tween-80
[2] = endpoint: mean survival time, dose: 100.0 mg/kg/injection, schedule: Q01DX009 (ip), vehicle: saline with Tween-80
[3] = endpoint: mean survival time, dose: 200.0 mg/kg/injection, schedule: Q01DX009 (ip), vehicle: saline with Tween-80
[4] = endpoint: mean survival time, dose: 100.0 mg/kg/injection, schedule: Q04DX003 (ip), vehicle: saline with Tween-80
[5] = endpoint: mean survival time, dose: 200.0 mg/kg/injection, schedule: Q04DX003 (ip), vehicle: saline with Tween-80
[6] = endpoint: mean survival time, dose: 400.0 mg/kg/injection, schedule: Q04DX003 (ip), vehicle: saline with Tween-80
[7] = endpoint: mean survival time, dose: 400.0 mg/kg/injection, schedule: Q01DX009 (ip), vehicle: saline with Tween-80

NCCCNCCCCNC(=O)C(O)NC(=O)CCCCCCN=C(N)N (configuration not stated)
T/C (endpoint: median survival time, dose: 0.19 mg/kg/injection, schedule: Q01DX005 (iv), vehicle: saline): 123 % of control
T/C (endpoint: median survival time, dose: 0.39 mg/kg/injection, schedule: Q01DX009 (ip), vehicle: saline): 185 % of control and 231 % of control
T/C (endpoint: median survival time, dose: 0.75 mg/kg/injection, schedule: Q01DX009 (ip), vehicle: saline): 198 % of control
T/C (endpoint: median survival time, dose: 0.78 mg/kg/injection, schedule: Q01DX005 (iv), vehicle: other): 153 % of control
T/C (endpoint: median survival time, dose: 0.78 mg/kg/injection, schedule: Q01DX005 (iv), vehicle: saline): 156 % of control
T/C (endpoint: median survival time, dose: 0.78 mg/kg/injection, schedule: Q01DX009 (ip), vehicle: other): 213 % of control
T/C (endpoint: median survival time, dose: 1.3 mg/kg/injection, schedule: Q01DX005 (iv), vehicle: other): 153 % of control
T/C (endpoint: median survival time, dose: 1.3 mg/kg/injection, schedule: Q01DX005 (iv), vehicle: saline): 161 % of control
T/C (endpoint: median survival time, dose: 1.5 mg/kg/injection, schedule: Q01DX009 (ip), vehicle: saline): 220 % of control
T/C (endpoint: median survival time, dose: 1.56 mg/kg/injection, schedule: Q01DX005 (iv), vehicle: saline): 160 % of control
T/C (endpoint: median survival time, dose: 1.56 mg/kg/injection, schedule: Q01DX009 (ip), vehicle: other): 213 % of control
T/C (endpoint: median survival time, dose: 2.16 mg/kg/injection, schedule: Q01DX005 (iv), vehicle: other): 171 % of control
T/C (endpoint: median survival time, dose: 2.16 mg/kg/injection, schedule: Q01DX005 (iv), vehicle: saline): 165 % of control
T/C (endpoint: median survival time, dose: 3.0 mg/kg/injection, schedule: Q01DX009 (ip), vehicle: saline): 220 % of control
T/C (endpoint: median survival time, dose: 3.12 mg/kg/injection, schedule: Q01DX005 (iv), vehicle: saline): 172 % of control
T/C (endpoint: median survival time, dose: 3.12 mg/kg/injection, schedule: Q01DX009 (ip), vehicle: other): 204 % of control
T/C (endpoint: median survival time, dose: 3.6 mg/kg/injection, schedule: Q01DX005 (iv), vehicle: other): 176 % of control
T/C (endpoint: median survival time, dose: 3.6 mg/kg/injection, schedule: Q01DX005 (iv), vehicle: saline): 164 % of control
T/C (endpoint: median survival time, dose: 4.4 mg/kg/injection, schedule: Q01DX009 (ip), vehicle: saline): 221 % of control and 225 % of control and 230 % of control
T/C (endpoint: median survival time, dose: 4.5 mg/kg/injection, schedule: Q01DX009 (ip), vehicle: saline): 219 % of control
T/C (endpoint: median survival time, dose: 6.0 mg/kg/injection, schedule: Q01DX005 (iv), vehicle: other): 175 % of control
T/C (endpoint: median survival time, dose: 6.0 mg/kg/injection, schedule: Q01DX005 (iv), vehicle: saline): 172 % of control
T/C (endpoint: median survival time, dose: 6.0 mg/kg/injection, schedule: Q01DX009 (ip), vehicle: saline): 219 % of control
T/C (endpoint: median survival time, dose: 6.25 mg/kg/injection, schedule: Q01DX005 (iv), vehicle: saline): 430 % of control
T/C (endpoint: median survival time, dose: 6.25 mg/kg/injection, schedule: Q01DX009 (ip), vehicle: other): 225 % of control
T/C (endpoint: median survival time, dose: 7.88 mg/kg/injection, schedule: Q01DX005 (sc), vehicle: water): 163 % of control
T/C (endpoint: median survival time, dose: 10.0 mg/kg/injection, schedule: Q01DX005 (iv), vehicle: saline): 180 % of control
T/C (endpoint: median survival time, dose: 12.0 mg/kg/injection, schedule: Q01DX009 (ip), vehicle: saline): 223 % of control
T/C (endpoint: median survival time, dose: 12.5 mg/kg/injection, schedule: Q01DX009 (ip), vehicle: other): 242 % of control
T/C (endpoint: median survival time, dose: 15.75 mg/kg/injection, schedule: Q01DX005 (sc), vehicle: water): 173 % of control and 179 % of control
T/C (endpoint: median survival time, dose: 25.0 mg/kg/injection, schedule: Q01DX009 (ip), vehicle: other): 227 % of control
T/C (endpoint: median survival time, dose: 31.5 mg/kg/injection, schedule: Q01DX005 (sc), vehicle: water): 178 % of control and 182 % of control
T/C (endpoint: median survival time, dose: 31.5 mg/kg/injection, schedule: Q03HX008 (sc), vehicle: water): 164 % of control
T/C (endpoint: median survival time, dose: 37.0 mg/kg/injection, schedule: Q01DX005 (sc), vehicle: water): 183 % of control
T/C (endpoint: median survival time, dose: 45.0 mg/kg/injection, schedule: Q01DX005 (sc), vehicle: water): 176 % of control
T/C (endpoint: median survival time, dose: 150.0 micrograms per hour, schedule: Q#X X048 (sc), vehicle: water): 182 % of control
T/C (endpoint: median survival time, dose: 150.0 micrograms per hour, schedule: Q#X X072 (sc), vehicle: water): 182 % of control
T/C (endpoint: median survival time, dose: 150.0 micrograms per hour, schedule: Q#X X096 (sc), vehicle: water): 205 % of control
T/C (endpoint: median survival time, dose: 170.0 micrograms per hour, schedule: Q#X X048 (sc), vehicle: water): 178 % of control
T/C (endpoint: median survival time, dose: 170.0 micrograms per hour, schedule: Q#X X072 (sc), vehicle: water): 200 % of control
T/C (endpoint: median survival time, dose: 200.0 micrograms per hour, schedule: Q#X X048 (sc), vehicle: water): 110 % of control
T/C (endpoint: median survival time, dose: 200.0 micrograms per hour, schedule: Q#X X072 (sc), vehicle: water): 101 % of control
T/C (endpoint: median survival time, dose: 200.0 micrograms per hour, schedule: Q#X X096 (sc), vehicle: water): 114 % of control
T/C (endpoint: median survival time, dose: 207.0 micrograms per hour, schedule: Q#X X048 (sc), vehicle: water): 168 % of control
T/C (endpoint: median survival time, dose: 207.0 micrograms per hour, schedule: Q#X X072 (sc), vehicle: water): 120 % of control
T/C (endpoint: median survival time, dose: 207.0 micrograms per hour, schedule: Q#X X096 (sc), vehicle: water): 109 % of control

CCCCOc1ccc(/C=N\NC(=O)CNC(=O)Nc2ccc(F)cc2)cc1
T/C [1]: 92 % of control
T/C [2]: 88 % of control
T/C [3]: 88 % of control

CCC1(O)C(=O)OCc2c1cc1n(c2=O)Cc2cc3ccc(/C=N/N=C(N)N)cc3nc2-1 (configuration not stated)
T/C (endpoint: median survival time, dose: 10.0 mg/kg/injection, schedule: Q04DX002 (ip), vehicle: saline with Tween-80): 106 % of control
T/C (endpoint: median survival time, dose: 20.0 mg/kg/injection, schedule: Q04DX002 (ip), vehicle: saline with Tween-80): 113 % of control
T/C (endpoint: median survival time, dose: 40.0 mg/kg/injection, schedule: Q04DX002 (ip), vehicle: saline with Tween-80): 102 % of control
T/C (endpoint: median survival time, dose: 80.0 mg/kg/injection, schedule: Q04DX002 (ip), vehicle: saline with Tween-80): 102 % of control

CN(C)NC=O
T/C (endpoint: mean survival time, dose: 100.0 mg/kg/injection, schedule: Q04DX002 (ip), vehicle: saline): 101 % of control
T/C (endpoint: mean survival time, dose: 200.0 mg/kg/injection, schedule: Q04DX002 (ip), vehicle: saline): 101 % of control
T/C (endpoint: mean survival time, dose: 400.0 mg/kg/injection, schedule: Q04DX002 (ip), vehicle: saline): 101 % of control

NC1CCCCC1N.O=S(=O)([O-])c1ccccc1S(=O)(=O)[O-].[Pt+4]
T/C (endpoint: median survival time, dose: 1.56 mg/kg/injection, schedule: Q04DX003 (ip), vehicle: saline): 105 % of control
T/C (endpoint: median survival time, dose: 6.25 mg/kg/injection, schedule: Q04DX003 (ip), vehicle: saline): 212 % of control and 216 % of control
T/C (endpoint: median survival time, dose: 12.5 mg/kg/injection, schedule: Q04DX003 (ip), vehicle: saline): 212 % of control and 361 % of control
T/C (endpoint: median survival time, dose: 25.0 mg/kg/injection, schedule: Q04DX003 (ip), vehicle: saline): 244 % of control and 375 % of control
T/C (endpoint: median survival time, dose: 50.0 mg/kg/injection, schedule: Q04DX003 (ip), vehicle: saline): 180 % of control

CC(=O)COc1ccccc1NC(C)=O
T/C [4]: 91 % of control
T/C [5]: 102 % of control
T/C [6]: 91 % of control

N=C(N)N
T/C [1]: 96 % of control
T/C [2]: 98 % of control
T/C [4]: 96 % of control
T/C [3]: 96 % of control
T/C [5]: 94 % of control

CC(CC=O)P(=O)(c1ccccc1)c1ccccc1 (configuration not stated)
T/C [2]: 94 % of control
T/C [4]: 94 % of control
T/C [3]: 92 % of control
T/C [5]: 91 % of control
T/C [7]: 95 % of control
T/C [6]: 91 % of control

O=C1Cc2c(nc[nH]c2=O)N1
T/C (endpoint: median survival time, dose: 50.0 mg/kg/injection, schedule: Q01DX005 (ip), vehicle: saline): 101 % of control
T/C (endpoint: median survival time, dose: 100.0 mg/kg/injection, schedule: Q01DX005 (ip), vehicle: saline): 97 % of control
T/C (endpoint: median survival time, dose: 200.0 mg/kg/injection, schedule: Q01DX005 (ip), vehicle: saline): 92 % of control

C1=CCC(CNc2ncnc3nc[nH]c23)=CC1
T/C [2]: 100 % of control
T/C [4]: 98 % of control
T/C [3]: 100 % of control
T/C [5]: 98 % of control
T/C [7]: 88 % of control
T/C [6]: 104 % of control

CCCCCCCC(=O)Nc1ccc(-n2c(=O)cc(C)n2C)cc1
T/C [2]: 90 % of control
T/C [4]: 90 % of control
T/C [3]: 88 % of control
T/C [5]: 97 % of control
T/C [7]: 86 % of control
T/C [6]: 95 % of control

O=C(O)C(O)C(O)C(O)C(O)CO (configuration not stated)
T/C [1]: 109 % of control
T/C [2]: 97 % of control
T/C [3]: 106 % of control

O=C1C2=C(CCCC2)CN1c1ccccc1
T/C [1]: 98 % of control
T/C [2]: 98 % of control
T/C [3]: 107 % of control

CCCOC(=O)NCCBr
T/C [1]: 101 % of control
T/C [2]: 96 % of control
T/C [3]: 93 % of control

CCCCOc1cc(C(=O)NCCN(CC)CC)c2ccccc2n1
T/C (endpoint: mean survival time, dose: 6.25 mg/kg/injection, schedule: Q01DX009 (ip), vehicle: saline with Tween-80): 102 % of control
T/C (endpoint: mean survival time, dose: 12.5 mg/kg/injection, schedule: Q01DX009 (ip), vehicle: saline with Tween-80): 108 % of control
T/C (endpoint: mean survival time, dose: 25.0 mg/kg/injection, schedule: Q01DX009 (ip), vehicle: saline with Tween-80): 103 % of control
